# Assay results: patent US11325889B2, “Substituted 3-((3-aminophenyl)amino)piperidine-2,6-dione compounds, compositions thereof, and methods of treatment therewith” (Celgene Corporation, priority 2018, dated 2022)
# Molecular target: T1, AR protein in VCaP cells (Homo sapiens, UniProt P10275)
# T1 construct: endogenous in cells; host or cells: VCaP cells
# T1 sequence (P10275 1-920): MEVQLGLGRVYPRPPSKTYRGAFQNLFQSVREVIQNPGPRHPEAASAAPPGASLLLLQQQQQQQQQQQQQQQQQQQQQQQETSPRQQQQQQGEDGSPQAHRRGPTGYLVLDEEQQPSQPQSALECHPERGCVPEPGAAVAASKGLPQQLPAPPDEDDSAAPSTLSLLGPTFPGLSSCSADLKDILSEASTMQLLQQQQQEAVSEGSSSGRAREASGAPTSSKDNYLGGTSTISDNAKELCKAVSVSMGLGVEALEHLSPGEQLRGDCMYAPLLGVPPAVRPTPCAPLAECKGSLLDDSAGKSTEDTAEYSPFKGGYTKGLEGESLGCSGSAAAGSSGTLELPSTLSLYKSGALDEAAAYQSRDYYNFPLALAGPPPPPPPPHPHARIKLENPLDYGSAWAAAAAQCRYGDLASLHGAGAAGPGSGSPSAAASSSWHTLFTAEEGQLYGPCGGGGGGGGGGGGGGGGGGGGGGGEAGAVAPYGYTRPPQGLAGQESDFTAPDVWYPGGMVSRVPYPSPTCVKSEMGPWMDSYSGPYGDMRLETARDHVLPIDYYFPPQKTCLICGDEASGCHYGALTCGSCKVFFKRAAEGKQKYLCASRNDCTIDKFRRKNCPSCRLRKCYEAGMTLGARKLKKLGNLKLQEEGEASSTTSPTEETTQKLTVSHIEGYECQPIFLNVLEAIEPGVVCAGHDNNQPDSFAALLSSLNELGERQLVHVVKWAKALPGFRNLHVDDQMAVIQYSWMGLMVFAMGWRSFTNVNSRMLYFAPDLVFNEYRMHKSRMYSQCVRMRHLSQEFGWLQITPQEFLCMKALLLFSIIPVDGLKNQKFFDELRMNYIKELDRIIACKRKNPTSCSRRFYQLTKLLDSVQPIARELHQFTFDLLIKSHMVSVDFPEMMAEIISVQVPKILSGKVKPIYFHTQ
# Test: VCAP AR Degradation Assay (AR ELISA, 24 h)
# Format: cell-based
# Settings: for Y (lowest measured AR level normalized to DMSO control): AR degradation efficiency; for DC50: concentration of compound when AR level = 50% of DMSO control, read-out: DC50
# Experimental: VCAP AR Degradation Assay.
# Test compounds were pre-dispensed into a Corning CellBind 96-well clear bottom plate (Cat #3300) using an acoustic dispenser to make a 10-point concentration series at 1:3 dilution for each compound. The final top concentration of each compound was […]. DMSO at a final concentration of 0.1% was used as a control. VCaP cells cultured in DMEM with 8% fetal bovine serum (FBS) were seeded at 50K cells per well in a 200 μL volume into the compound plate and incubated at 37° C. in a CO2 incubator for 24 h. The medium was carefully removed from the cells and the plate was placed on ice. One hundred […] of ice-cold 1× cell lysis buffer from Cell Signaling Technologies (Cat #9803) was added to each well of the cells and the plate was incubated at 4° C. on a shaker for 1 h. Fifteen […] of cell lysate was used for AR ELISA detection using a PathScan Total Sandwich AR ELISA kit (Cell Signaling Technology, Cat #12580). AR levels in compound-treated wells were normalized to that of DMSO control and expressed as percent of control (PoC) (y). A Four Parameter Logistic Model (Sigmoidal Dose-Response Model) was used to determine the compound's DC50, and EC50, using the following equation: y=(A+((B−A)/(1+((C/x)^D)))) • A=YMin (lowest AR level normalized to DMSO control in response to compound • treatment, as determined by curve fit) • B=YMax (maximum AR level as determined by curve fit) • C=EC50 • D=Hill Slope • x=compound concentration • EC50=the concentration of compound when y=(YMax−YMin)/2 • DC50=the concentration of the compound when y=50% of DMSO control (50% AR degradation) • y=AR protein level normalized to DMSO control
# The lowest measured AR level normalized to DMSO control in response to compound treatment, termed Y value, was used to characterize the compound-mediated AR degradation efficiency.
Structure (SMILES),Y (lowest measured AR level normalized to DMSO control),DC50 [nM]
"CC1(C)C(=O)N(c2ccc(C#N)c(C(F)(F)F)c2)C(=S)N1c1ccc(OCC2CCN(CC(=O)Nc3cc(Cl)cc(NC4CCC(=O)NC4=O)c3)CC2)c(Cl)c1 (centres unmarked) [Cmpd 9, 2-(4-((2-chloro-4-(3-(4-cyano-3-(trifluoromethyl)phenyl)-5,5-dimethyl-4-oxo-2-thioxoimidazolidin-1-yl)phenoxy)methyl)piperidin-1-yl)-N-(3-chloro-5-(2,6-dioxopiperidin-3-ylamino)phenyl)acetamide]",*** (35%<Y<50%),500 to 1000
"CCc1cc(N2C(=S)N(c3ccc(C#N)c(C(F)(F)F)c3)C(=O)C2(C)C)ccc1OCCC1CCN([C@H](C)C(=O)Nc2cccc(NC3CCC(=O)NC3=O)c2)CC1 (stereo partly drawn) [Cmpd 42, (2R)-2-(4-(2-(4-(3-(4-cyano-3-(trifluoromethyl)phenyl)-5,5-dimethyl-4-oxo-2-thioxoimidazolidin-1-yl)-2-ethylphenoxy)ethyl)piperidin-1-yl)-N-(3-(2,6-dioxopiperidin-3-ylamino)phenyl)propanamide]",** (25%<Y<=35%),100 to 500
"CCc1cc(N2C(=S)N(c3ccc(C#N)c(C(F)(F)F)c3)C(=O)C2(C)C)cnc1O[C@H]1C[C@@H](C)N(CC(=O)Nc2cccc(NC3CCC(=O)NC3=O)c2)[C@@H](C)C1 (stereo partly drawn) [Cmpd 95, 2-((2R,4r,6S)-4-((5-(3-(4-cyano-3-(trifluoromethyl)phenyl)-5,5-dimethyl-4-oxo-2-thioxoimidazolidin-1-yl)-3-ethylpyridin-2-yl)oxy)-2,6-dimethylpiperidin-1-yl)-N-(3-((2,6-dioxopiperidin-3-yl)amino)phenyl)acetamide]",** (25%<Y<=35%),500 to 1000
"CCc1cc(N2C(=S)N(c3ccc(C#N)c(C(F)(F)F)c3)C(=O)C2(C)C)ccc1OCC[C@@H]1CCN(CC(=O)Nc2cccc(NC3CCC(=O)NC3=O)c2)[C@H](C)C1 (stereo partly drawn) [Cmpd 71, 2-((2R,4R)-4-(2-(4-(3-(4-cyano-3-(trifluoromethyl)phenyl)-5,5-dimethyl-4-oxo-2-thioxoimidazolidin-1-yl)-2-ethylphenoxy)ethyl)-2-methylpiperidin-1-yl)-N-(3-(2,6-dioxopiperidin-3-ylamino)phenyl)acetamide]",* (0<Y<=25%),< 100
"CCc1cc(N2C(=S)N(c3ccc(C#N)c(C(F)(F)F)c3)C(=O)C2(C)C)ccc1OCCC1CCN([C@@H](C)C(=O)Nc2cc(Cl)cc(NC3CCC(=O)NC3=O)c2)CC1 (stereo partly drawn) [Cmpd 26, (2S)-N-(3-chloro-5-(2,6-dioxopiperidin-3-ylamino)phenyl)-2-(4-(2-(4-(3-(4-cyano-3-(trifluoromethyl)phenyl)-5,5-dimethyl-4-oxo-2-thioxoimidazolidin-1-yl)-2-ethylphenoxy)ethyl)piperidin-1-yl)propanamide]",* (0<Y<=25%),100 to 500
"CCc1cc(N2C(=S)N(c3ccc(C#N)c(C(F)(F)F)c3)C(=O)C23CCC3)ccc1OCCC1CCN([C@@H](C)C(=O)Nc2cc(Cl)cc(NC3CCC(=O)NC3=O)c2)CC1 (stereo partly drawn) [Cmpd 32, (2S)-N-(3-chloro-5-(2,6-dioxopiperidin-3-ylamino)phenyl)-2-(4-(2-(4-(7-(4-cyano-3-(trifluoromethyl)phenyl)-8-oxo-6-thioxo-5,7-diazaspiro[3.4]octan-5-yl)-2-ethylphenoxy)ethyl)piperidin-1-yl)propanamide]",** (25%<Y<=35%),100 to 500

# Second part, the compound after the results:
Y (lowest measured AR level normalized to DMSO control),DC50 [nM],Structure (SMILES)
* (0<Y<=25%),< 100,"CCc1cc(N2C(=S)N(c3cnc(C#N)c(C(F)(F)F)c3)C(=O)C23CCC3)ccc1OCCC1CCN([C@H](C)C(=O)Nc2cccc(NC3CCC(=O)NC3=O)c2)CC1 (stereo partly drawn) [Cmpd 84, (2R)-2-(4-(2-(4-(7-(6-cyano-5-(trifluoromethyl)pyridin-3-yl)-8-oxo-6-thioxo-5,7-diazaspiro[3.4]octan-5-yl)-2-ethylphenoxy)ethyl)piperidin-1-yl)-N-(3-(2,6-dioxopiperidin-3-ylamino)phenyl)propanamide]"
** (25%<Y<=35%),< 100,"CCc1cc(N2C(=S)N(c3cnc(C#N)c(C(F)(F)F)c3)C(=O)C2(C)C)ccc1OC1CCN(CC(=O)Nc2cccc(NC3CCC(=O)NC3=O)c2)CC1 (centres unmarked) [Cmpd 53, 2-(4-(4-(3-(6-cyano-5-(trifluoromethyl)pyridin-3-yl)-5,5-dimethyl-4-oxo-2-thioxoimidazolidin-1-yl)-2-ethylphenoxy)piperidin-1-yl)-N-(3-(2,6-dioxopiperidin-3-ylamino)phenyl)acetamide]"
* (0<Y<=25%),< 100,"CCc1cc(N2C(=S)N(c3cnc(C#N)c(C(F)(F)F)c3)C(=O)C2(C)C)ccc1OC1CCN(CC(=O)Nc2cc(Cl)cc(NC3CCC(=O)NC3=O)c2)CC1 (centres unmarked) [Cmpd 51, N-(3-chloro-5-(2,6-dioxopiperidin-3-ylamino)phenyl)-2-(4-(4-(3-(6-cyano-5-(trifluoromethyl)pyridin-3-yl)-5,5-dimethyl-4-oxo-2-thioxoimidazolidin-1-yl)-2-ethylphenoxy)piperidin-1-yl)acetamide]"
* (0<Y<=25%),100 to 500,"CCc1cc(N2C(=S)N(c3cnc(C#N)c(C(F)(F)F)c3)C(=O)C23CCC3)ccc1OCCC1CCN([C@H](C)C(=O)Nc2cc(Cl)cc(NC3CCC(=O)NC3=O)c2)CC1 (stereo partly drawn) [Cmpd 36, (2R)-N-(3-chloro-5-(2,6-dioxopiperidin-3-ylamino)phenyl)-2-(4-(2-(4-(7-(6-cyano-5-(trifluoromethyl)pyridin-3-yl)-8-oxo-6-thioxo-5,7-diazaspiro[3.4]octan-5-yl)-2-ethylphenoxy)ethyl)piperidin-1-yl)propanamide]"
** (25%<Y<=35%),< 100,"CCc1cc(N2C(=S)N(c3cnc(C#N)c(C(F)(F)F)c3)C(=O)C2(C)C)ccc1OCCC1CCN(CC(=O)Nc2cc(C#N)cc(NC3CCC(=O)NC3=O)c2)CC1 (centres unmarked) [Cmpd 39, N-(3-cyano-5-(2,6-dioxopiperidin-3-ylamino)phenyl)-2-(4-(2-(4-(3-(6-cyano-5-(trifluoromethyl)pyridin-3-yl)-5,5-dimethyl-4-oxo-2-thioxoimidazolidin-1-yl)-2-ethylphenoxy)ethyl)piperidin-1-yl)acetamide]"
* (0<Y<=25%),< 100,"CC1(C)C(=O)N(c2cnc(C#N)c(C(F)(F)F)c2)C(=S)N1c1ccc(OCCC2CCN(CC(=O)Nc3cccc(NC4CCC(=O)NC4=O)c3)CC2)c(Cl)c1 (centres unmarked) [Cmpd 5, 2-(4-(2-(2-chloro-4-(3-(6-cyano-5-(trifluoromethyl)pyridin-3-yl)-5,5-dimethyl-4-oxo-2-thioxoimidazolidin-1-yl)phenoxy)ethyl)piperidin-1-yl)-N-(3-(2,6-dioxopiperidin-3-ylamino)phenyl)acetamide]"
** (25%<Y<=35%),< 100,"CCc1cc(N2C(=S)N(c3cnc(C#N)c(C(F)(F)F)c3)C(=O)C2(C)C)ccc1OCC1CCN(CC(=O)Nc2cc(Cl)cc(NC3CCC(=O)NC3=O)c2)CC1 (centres unmarked) [Cmpd 81, N-(3-chloro-5-(2,6-dioxopiperidin-3-ylamino)phenyl)-2-(4-((4-(3-(6-cyano-5-(trifluoromethyl)pyridin-3-yl)-5,5-dimethyl-4-oxo-2-thioxoimidazolidin-1-yl)-2-ethylphenoxy)methyl)piperidin-1-yl)acetamide]"
